Where two headings read alike, the source gives them in different places.
Experiments:
zebrafish PXR = molecular target: T1, zebrafish PXR (Danio rerio, UniProt A5WYG8)
T1 sequence (A5WYG8 144-430): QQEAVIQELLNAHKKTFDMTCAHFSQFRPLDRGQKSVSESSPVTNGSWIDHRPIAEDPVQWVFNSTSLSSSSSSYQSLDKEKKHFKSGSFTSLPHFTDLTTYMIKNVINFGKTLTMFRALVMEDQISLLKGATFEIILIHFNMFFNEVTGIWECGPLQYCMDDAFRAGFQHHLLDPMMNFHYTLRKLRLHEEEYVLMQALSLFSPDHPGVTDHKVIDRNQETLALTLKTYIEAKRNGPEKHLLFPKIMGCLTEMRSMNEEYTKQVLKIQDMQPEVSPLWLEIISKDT

human PXR = molecular target: T2, human PXR (Homo sapiens, UniProt O75469); assay: PXR activation luciferase reporter assay, human PXR in HepG2-NTCP cells
T2 sequence (O75469 1-434): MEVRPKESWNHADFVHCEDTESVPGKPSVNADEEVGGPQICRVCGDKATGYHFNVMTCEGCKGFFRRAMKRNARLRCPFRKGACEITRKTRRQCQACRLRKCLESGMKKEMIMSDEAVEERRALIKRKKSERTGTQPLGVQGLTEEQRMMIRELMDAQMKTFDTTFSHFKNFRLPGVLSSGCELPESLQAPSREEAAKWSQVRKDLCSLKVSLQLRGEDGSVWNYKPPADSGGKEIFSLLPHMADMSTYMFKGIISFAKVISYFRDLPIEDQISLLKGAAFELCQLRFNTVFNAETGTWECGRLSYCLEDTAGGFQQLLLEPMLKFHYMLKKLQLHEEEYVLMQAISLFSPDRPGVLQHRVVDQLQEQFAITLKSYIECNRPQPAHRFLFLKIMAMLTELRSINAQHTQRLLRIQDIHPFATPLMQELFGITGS

[1] = hPXR Activity, -log(EC50), EC50 in molar units, activation of human PXR
[2] = Human PXR EC50 (concentration class, Figure 2A), class read from box colour against the key of Figure 2
[3] = -log(EC50), EC50 in molar units, activation of zebrafish PXR
[4] = -log(EC50), EC50 in molar units, activation of human PXR

Compound	Toxicity (HepG2 cells; human, 24 hr) [µM]	EC50 (human PXR; [1]) [µM]	Toxicity (HepG2 cells)	zfPXR Activity (zebrafish PXR; [3])	further results
Cc1c(C)c2c(c(C)c1O)CC[C@@](C)(CCC[C@H](C)CCC[C@H](C)CCCC(C)C)O2 [MI37, α-Tocopherol]	100	~50.1	–	–	zfPXR Activity (zebrafish PXR): None
C[C@@H]1C[C@H]2[C@@H]3CCC4=CC(=O)C=C[C@]4(C)[C@@]3(F)[C@@H](O)C[C@]2(C)[C@@]1(O)C(=O)CO [PR29, 1,4-Pregnadien-9α-fluoro-16α-methyl-11β,17,21-triol-3,20-dione]	–	–	None	–	zfPXR Activity (zebrafish PXR): None; EC50 (human PXR; hPXR Activity): 40.7 µM
C[C@]12CCC(=O)C=C1CC[C@@H]1[C@@H]2C(=O)C[C@@]2(C)[C@H]1CC[C@]2(O)C(=O)CO [PR6, 4-Pregnen-17,21-diol-3,11,20-trione]	200	69.2	–	–	Zebrafish PXR EC50 (concentration class, Figure 2B) (zebrafish PXR): Inactive; zfPXR Activity (zebrafish PXR): None; EC50 (human PXR; [2]): 51 to 200 µM
COC(=O)CC[C@@H](C)[C@H]1CC[C@H]2[C@@H]3CC[C@@H]4C[C@H](OC(C)=O)CC[C@]4(C)[C@H]3CC[C@]12C [BI50, 5β-Cholanic acid-3α-acetate methyl ester]	–	–	None	None	hPXR Activity (human PXR; [4]): 5.96
C[C@H](CCC(=O)O)[C@H]1CC[C@H]2[C@@H]3CC[C@@H]4C[C@H](OS(=O)(=O)O)CC[C@]4(C)[C@H]3CC[C@]12C [BI41, 5β-Cholanic acid-3α-sulfate]	–	–	None	4.61	hPXR Activity (human PXR; [4]): 3.93
C[C@]12CC[C@@H]3c4ccc(OC5O[C@H](C(=O)O)[C@@H](O)[C@H](O)[C@H]5O)cc4CC[C@H]3[C@@H]1CC[C@@H]2O (stereo partly drawn) [ES9, 1,3,5(10)-Estratrien-17β-ol-3-glucosiduronate]	–	–	None	None	hPXR Activity (human PXR; [4]): None
C=C1/C(=C\C=C2/CCC[C@]3(C)[C@@H]([C@H](C)CCCC(C)(C)O)CC[C@@H]23)C[C@@H](O)C[C@@H]1O [MI41, 1α,25-Dihydroxyvitamin D3]	50	–	–	–	–
CC(=O)O[C@H]1C(=O)[C@@]2(C)[C@H]([C@H](OC(=O)c3ccccc3)[C@]3(O)C[C@H](OC(=O)[C@H](O)[C@@H](NC(=O)c4ccccc4)c4ccccc4)C(C)=C1C3(C)C)[C@]1(OC(C)=O)CO[C@@H]1C[C@@H]2O [MI24, Paclitaxel]	100	12	–	–	zfPXR Activity (zebrafish PXR): None
CCOC(=O)c1ccccc1N [MI14, Ethyl-2-aminobenzoate]	–	–	–	None	hPXR Activity (human PXR; [4]): None
C[C@H]([C@H](O)CCC(C)(C)O)[C@H]1CC[C@@]2(O)C3=CC(=O)[C@@H]4C[C@@H](O)[C@@H](O)C[C@]4(C)[C@H]3CC[C@]12C [MI13, Ecdysone]	–	–	None	None	hPXR Activity (human PXR; [4]): None
C=C1/C(=C\C=C2/CCC[C@]3(C)[C@@H]([C@H](C)CCCC(C)C)CC[C@@H]23)C[C@@H](O)C[C@@H]1O [MI43, 1α-Hydroxyvitamin D3]	50	–	–	None	–
C[C@]12CCC(=O)C=C1CC[C@@H]1[C@@H]2[C@@H](O)C[C@]2(C=O)[C@@H](C(=O)CO)CC[C@@H]12 [PR5, 4-Pregnen-11β,21-diol-3,18,20-trione]	–	55	None	None	EC50 (human PXR; [2]): 51 to 200 µM
C[C@]12CCC(=O)C=C1CC[C@@H]1[C@@H]2CC[C@@]2(C)[C@H]1CC[C@]2(O)C(=O)CO [PR4, 4-Pregnen-17,21-diol-3,20-dione]	–	22.9	None	None	EC50 (human PXR; [2]): 11 to 50 µM
CC(=O)Nc1ccc(O)cc1 [MI1, Acetaminophen]	–	–	None	–	–
CC1=C(C/C=C(\C)CCC[C@H](C)CCC[C@H](C)CCCC(C)C)C(=O)c2ccccc2C1=O [MI44, Vitamin K1]	100	10.2	–	None	–
CC1=C(/C=C/C(C)=C/C=C/C(C)=C/C=C/C=C(C)/C=C/C=C(C)/C=C/C2=C(C)CCCC2(C)C)C(C)(C)CCC1 [MI9, β-Carotene]	100	3.47	–	None	–
CC(=O)[C@H]1CC[C@H]2[C@@H]3CC=C4C[C@@H](O)CC[C@]4(C)[C@H]3CC[C@]12C [PR12, 5-Pregnen-3β-diol-20-one]	–	–	None	6.32	zfPXR Efficacy (zebrafish PXR; relative to 20 μM 5α-androstan-3α-ol, assigned an efficacy of 1.0): 2.05; hPXR Activity (human PXR; [4]): 5.64; hPXR Efficacy (human PXR; relative to 10 μM rifampicin, assigned an efficacy of 1.0): 1.26
CC[C@H](C)C(=O)O[C@H]1CCC=C2C=C[C@H](C)[C@H](CC[C@@H]3C[C@@H](O)CC(=O)O3)[C@H]21 [MI20, Mevastatin]	15	5.89	–	None	–
C[C@]12CC[C@@H]3c4ccc(O)cc4CC[C@H]3[C@@H]1CC[C@@H]2O [ES1, 1,3,5(10)-Estratrien-3,17β-diol]	200	15.8	–	None	EC50 (human PXR; [2]): 11 to 50 µM
CO[C@H]1/C=C/O[C@@]2(C)Oc3c(C)c(O)c4c(O)c(c(/C=N/N5CCN(C)CC5)c(O)c4c3C2=O)NC(=O)/C(C)=C\C=C\[C@H](C)[C@H](O)[C@@H](C)[C@@H](O)[C@@H](C)[C@H](OC(C)=O)[C@@H]1C [MI32, Rifampicin]	200	–	–	None	–
Nc1nc2ncc(CNc3ccc(C(=O)N[C@@H](CCC(=O)O)C(=O)O)cc3)nc2c(=O)[nH]1 [MI16, Folic acid]	–	–	None	–	zfPXR Activity (zebrafish PXR): None
COC(=O)[C@H]1[C@H]2C[C@@H]3c4[nH]c5cc(OC)ccc5c4CCN3C[C@H]2C[C@@H](OC(=O)c2cc(OC)c(OC)c(OC)c2)[C@@H]1OC [MI30, Reserpine]	50	–	–	–	–
C[C@]12C[C@H](O)[C@H]3[C@@H](CCC4=CC(=O)CC[C@@]43C)[C@@H]1CC[C@@H]2C(=O)CO [PR3, 4-Pregnen-11β,21-diol-3,20-dione]	–	10	None	–	Zebrafish PXR EC50 (concentration class, Figure 2B) (zebrafish PXR): Inactive; zfPXR Activity (zebrafish PXR): None; EC50 (human PXR; [2]): < 10 µM
C[C@]12CC[C@@H](O[C@@H]3O[C@H](C(=O)O)[C@@H](O)[C@H](O)[C@H]3O)C[C@H]1CC[C@@H]1[C@@H]2CC[C@]2(C)C(=O)CC[C@@H]12 [AN18, 5β-Androstan-3α-glucosiduronate-17-one]	–	–	None	None	hPXR Activity (human PXR; [4]): None
CC(=O)[C@H]1CC[C@H]2[C@@H]3CCC4=CC(=O)CC[C@]4(C)[C@H]3CC[C@]12C [PR7, 4-Pregnen-3,20-dione]	200	14.8	–	None	EC50 (human PXR; [2]): 11 to 50 µM
C/C=C1\C(=O)C[C@H]2[C@@H]3CCC4=CC(=O)CC[C@]4(C)[C@H]3CC[C@]12C [MI17, Guggulsterone]	–	–	None	–	zfPXR Activity (zebrafish PXR): None
C[C@]12CC[C@@H]3c4ccc(O)cc4CC[C@H]3[C@@H]1CCC2=O [ES2, 1,3,5(10)-Estratrien-3-ol-17-one]	200	–	–	–	–
CC(=O)[C@@]1(O)CC[C@H]2[C@@H]3CCC4=CC(=O)CC[C@]4(C)[C@H]3CC[C@@]21C [PR8, 4-Pregnen-17-ol-3,20-dione]	–	–	–	–	Toxicity (HepG2 cells; human): None
CCOP(=O)(OCC)C(=Cc1cc(C(C)(C)C)c(O)c(C(C)(C)C)c1)P(=O)(OCC)OCC [MI33, SR12813]	–	–	10 µM	None	–

Source: article PMC2358886, “Evolution of pharmacologic specificity in the pregnane X receptor” (BMC Evolutionary Biology, 2008)
